In the Deep4Chem optical property database:
Where “and” joins values, the source holds several entries; their conditions need not be identical. Equal values may be shown once.

Test: solvent given as SMILES

## c1ccc(-c2oc(-c3ccccc3)c3ccccc23)cc1
In C1CCCCC1
  absorption maximum: 411 nm
In C1CCOC1
  absorption maximum: 413 nm
In CC#N
  absorption maximum: 411 nm
In CCO
  absorption maximum: 411 nm
In CN(C)C=O
  absorption maximum: 415 nm
In CS(C)=O
  absorption maximum: 416 nm
In Cc1ccccc1
  absorption maximum: 414 nm

## N#Cc1cccc(-c2nc(-c3ccccc3)c(-c3ccccc3)[nH]2)c1
In CO
  absorption maximum: 308 nm

## F[B-]1(F)n2c(/C=C/c3ccc(C(=C(c4ccccc4)c4ccccc4)c4ccccc4)cc3)ccc2C(c2ccccc2)=C2C=CC(/C=C/c3ccc(C(=C(c4ccccc4)c4ccccc4)c4ccccc4)cc3)=[N+]21
In C1CCOC1
  absorption maximum: 665 nm

## N#Cc1ccc(/C=C2\N=C(c3ccccc3)NC2=O)cc1
In C1COCCO1
  absorption maximum: 393 nm

## Cc1ccc(-n2cccc2)cc1
In CC#N
  absorption maximum: 254 nm
In CCCCCC
  absorption maximum: 254 nm

## CCOC(=O)CN(CC(=O)OCC)c1ccc(-c2cc(-c3ccccn3)nc(-c3ccccn3)c2)cc1
In CC#N
  absorption maximum: 328 nm
In CCOC(C)=O
  absorption maximum: 328 nm
In CN(C)C=O
  absorption maximum: 332 nm
In CS(C)=O
  absorption maximum: 336 nm
In c1ccccc1
  absorption maximum: 328 nm

## COCCOCCOCCOCC(COCCOCCOCCOC)Oc1cc(/C=C/c2ccc(/C=C(\C#N)C(=O)c3ccccc3)cc2)c(OC(COCCOCCOCCOC)COCCOCCOCCOC)cc1/C=C/c1ccc(/C=C(\C#N)C(=O)c2ccccc2)cc1
In ClCCl
  absorption maximum: 461 nm

## CC1(C)c2ccccc2N(c2ccc3c(c2)Oc2ccccc2S3(=O)=O)c2ccccc21
In Cc1ccccc1
  absorption maximum: 356 nm

## c1ccc2c(c1)oc1nc3oc4ccc(-n5c6ccccc6c6ccccc65)cc4c3cc12
In ClC(Cl)Cl
  absorption maximum: 346 nm

## COc1c2ccccc2c(OC)c2c1c1cc(F)ccc1n2C
In C1CCCCC1
  absorption maximum: 415 nm
In CC#N
  absorption maximum: 417 nm
In CO
  absorption maximum: 416 nm
In ClCCl
  absorption maximum: 419 nm

## Cc1ccccc1C1=C2C=CC(=[N+](C)C)C=[C]2[Ge]([CH3])([CH3])[c]2cc(N(C)C)ccc21
In O
  absorption maximum: 635 nm

## O=C1C=C(Nc2ccc(F)cc2[N+](=O)[O-])C(=O)c2ccccc21
In CO
  absorption maximum: 448 nm

## Cc1cc(-c2nc(-c3ccccc3)nc(-c3ccccc3)n2)ccc1-c1ccc2c(c1)C1(c3ccccc3-c3ccccc31)c1ccccc1N2c1ccccc1
In c1cc(-c2cccc(-n3c4ccccc4c4ccccc43)c2)cc(-n2c3ccccc3c3ccccc32)c1
  absorption maximum: 371.92 nm

## C#CCn1c2ccccc2c2cc(/C=C/c3c(Cl)c(C)c4n3[B-](F)(F)[N+]3=C(C)C(Cl)=C(C)C3=C4c3ccc(I)cc3)ccc21
In CC#N
  absorption maximum: 606 nm
In CS(C)=O
  absorption maximum: 616 nm
In ClC(Cl)Cl
  absorption maximum: 619 nm

## Nc1ccc2c(ccc3[n+]2[B-](F)(F)n2c-3cc3c4ccccc4c4ccccc4c32)c1
In ClCCl
  absorption maximum: 482 nm

## CCCC1=Cc2nc1ccc1[nH]c(cc1CCC)c1nc(c(N)cc3[nH]c2cc3CCC)C(CCC)=C1
In Cc1ccccc1
  absorption maximum: 710 nm

## O=S(=O)(c1ccc(-c2ccc3c(c2)c2ccccc2n3-c2ccccc2)cc1)c1ccc(-c2ccc3c(c2)c2ccccc2n3-c2ccccc2)cc1
In Cc1ccccc1
  absorption maximum: 332 nm

## N#Cc1cc2ccc3cc(C#N)c4ccccc4c3c2c2ccccc12
In ClC(Cl)Cl
  absorption maximum: 422 nm

## O=C1c2ccc(-c3ccc(N(c4ccccc4)c4ccccc4)cc3)cc2C(=O)c2ccc(-c3ccc(N(c4ccccc4)c4ccccc4)cc3)cc21
In Cc1ccccc1
  absorption maximum: 454 nm

## COc1ccc(-n2nc(C(=O)N3CCCC3)c(N3CCCC3)n2)cc1
In CC#N
  absorption maximum: 328 nm
In CCCCCC
  absorption maximum: 332 nm
In CCO
  absorption maximum: 328 nm
In CN(C)C=O
  absorption maximum: 334 nm
In ClC(Cl)Cl
  absorption maximum: 331 nm

## COc1ccc(-c2pc3ccccc3s2)cc1 (stereo not given)
In CC#N
  absorption maximum: 347 nm

## Cn1c(=O)c(/N=N/c2ccc(Nc3ccccc3)c(S(=O)(=O)O)c2)c(O)c2ccccc21
In C1CCOC1
  absorption maximum: 412 nm
In CC(C)=O
  absorption maximum: 407 nm
In CCOC(C)=O
  absorption maximum: 411 nm
In CO
  absorption maximum: 400 nm
In CS(C)=O
  absorption maximum: 396 nm
In Cc1ccccc1
  absorption maximum: 414 nm
In ClCCl
  absorption maximum: 415 nm
In O
  absorption maximum: 385 nm

## Cc1ccc(C#Cc2ccc3nc4ccc(C#Cc5ccc(C)cc5)cn4c(=O)c3c2)cc1
In ClCCl
  absorption maximum: 385 nm

## COc1ccc2c(c1)c1c(OC)c3ccccc3c(OC)c1n2C
In C1CCCCC1
  absorption maximum: 421 nm
In CC#N
  absorption maximum: 422 nm
In CO
  absorption maximum: 421 nm
In ClCCl
  absorption maximum: 425 nm

## CC(C)(C)OC(=O)/C=C/C1=CC2=C(c3ccccc3)c3cccn3[B-](F)(F)[N+]2=C1
In ClCCl
  absorption maximum: 538 nm

## COC1(OC)C2(Cl)c3nc4cc(-c5cccs5)ccc4nc3C1(Cl)C1C[C@H]3[C@@H](CC12)C1(Cl)c2nc4cc(-c5cccs5)ccc4nc2C3(Cl)C1(OC)OC (stereo not given in full)
In CC#N
  absorption maximum: 366 nm
In CCCCCC
  absorption maximum: 358 nm
In CCOC(C)=O
  absorption maximum: 362 nm
In CO
  absorption maximum: 369 nm
In Cc1ccccc1
  absorption maximum: 364 nm
In ClC(Cl)Cl
  absorption maximum: 368 nm
In ClCCl
  absorption maximum: 369 nm

## CC(C)(C)c1ccc(C2=c3sc4ccccc4c3=[N+]3C2=Nc2c(-c4ccc(C(C)(C)C)cc4)c4sc5ccccc5c4n2[B-]3(F)F)cc1
In C1CCOC1
  absorption maximum: 709 nm
In Cc1ccccc1
  absorption maximum: 715 nm
In ClC(Cl)Cl
  absorption maximum: 711 nm

## Cc1cccc2cc(-c3cc4cccc(C)c4oc3=O)oc12
In CC#N
  absorption maximum: 369 nm
In CCOC(C)=O
  absorption maximum: 370 nm
In CS(C)=O
  absorption maximum: 373 nm
In Cc1ccccc1
  absorption maximum: 376 nm
In O
  absorption maximum: 367 nm

## C(=C\c1ccc(-c2ccncc2)cc1)/c1ccc(-c2ccncc2)cc1
In ClCCl
  absorption maximum: 345 nm

## COC(=O)[C@H](Cc1ccccc1)Nc1c(C(C)=O)c(=O)oc2cc(N(C)C)ccc12
In ClCCl
  absorption maximum: 373 nm

## CC(C)[Si](C#Cc1ccc(-c2c3cccc4c5cccc6c(-c7ccc(C#C[Si](C(C)C)(C(C)C)C(C)C)cc7)c7cccc8c9cccc2c9c(c34)c(c65)c78)cc1)(C(C)C)C(C)C
In Cc1ccccc1
  absorption maximum: 727 nm

## CCOc1ccc2cc(-c3ccc(C)cc3)c(=O)oc2c1
In C1CCOC1
  absorption maximum: 342 nm
In CCCCCC
  absorption maximum: 338 nm
In CCO
  absorption maximum: 344 nm
In CS(C)=O
  absorption maximum: 345 nm

## COc1ccc(N2c3c(sc4ccccc34)Sc3sc4ccccc4c32)cc1
In ClCCl
  absorption maximum: 309 nm

## F[B-]1(F)OC(c2ccccc2)=Nc2sc(-c3ccccc3)n[n+]21
In C1CCOC1
  absorption maximum: 332 nm
In CC#N
  absorption maximum: 330 nm
In CCO
  absorption maximum: 328 nm
In CCOC(C)=O
  absorption maximum: 331 nm
In Cc1ccccc1
  absorption maximum: 337 nm
In ClC(Cl)Cl
  absorption maximum: 335 nm
In ClCCl
  absorption maximum: 333 nm

## O=c1oc2ccc(Cl)cc2cc1-c1cc2cc(Cl)ccc2o1
In CC#N
  absorption maximum: 369 nm
In CCOC(C)=O
  absorption maximum: 370 nm
In CS(C)=O
  absorption maximum: 373 nm
In Cc1ccccc1
  absorption maximum: 375 nm
In O
  absorption maximum: 327 nm

## CCCCCCOc1cc(N(CC)CC)ccc1/C=C(\C#N)c1ccc(/C=C/C(=C(C#N)C#N)c2ccc3c(c2)c2ccccc2n3CC)s1
In ClCCl
  absorption maximum: 570 nm

## COc1cc(OC)cc(C2=C(c3cc(OC)c(OC)c(OC)c3)C3=Nc4c(-c5cc(OC)c(OC)c(OC)c5)c(-c5cc(OC)cc(OC)c5)c(-c5ccc(C(C)(C)C)cc5)n4[B-](F)(F)[N+]3=C2c2ccc(C(C)(C)C)cc2)c1
In Cc1ccccc1
  absorption maximum: 674 nm

## [NH3+]c1cc([NH3+])cc(-c2[nH+]c3ccccc3s2)c1
In O
  absorption maximum: 328 nm

## C=CCOc1nnc(OCCC(F)(F)C(F)(F)C(F)(F)C(F)(F)C(F)(F)C(F)(F)C(F)(F)C(F)(F)F)nn1
In ClCCl
  absorption maximum: 526 nm
In OCC(F)(F)F
  absorption maximum: 512 nm

## CCCCN1C(=O)c2cccc3c([O-])c(/C=C/c4sc5ccccc5[n+]4CC)cc(c23)C1=O
In C1CCOC1
  absorption maximum: 586.75 nm
In CC#N
  absorption maximum: 564.61 nm
In CC(C)=O
  absorption maximum: 572.49 nm
In CCO
  absorption maximum: 555.68 nm
In CO
  absorption maximum: 545.83 nm
In CS(C)=O
  absorption maximum: 566.81 nm
In Cc1ccccc1
  absorption maximum: 607.26 nm
In ClC(Cl)Cl
  absorption maximum: 589.53 nm
In ClCCl
  absorption maximum: 584.78 nm
In O
  absorption maximum: 489.49 nm

## CN(C)c1ccc2nc(-c3ccc(C(=O)Nc4ccccc4)cc3)sc2c1
In C1CCCCC1
  absorption maximum: 387 nm and 384 nm
In CC#N
  absorption maximum: 388 nm
In CC(C)O
  absorption maximum: 389 nm
In CO
  absorption maximum: 389 nm
In CS(C)=O
  absorption maximum: 396 nm
In ClC(Cl)Cl
  absorption maximum: 383 nm
In c1ccccc1
  absorption maximum: 392 nm

## CCCCOc1c(C#N)cc2cc(C#N)c(OCCCC)c3c4c(OCCCC)c(C#N)cc5cc(C#N)c(OCCCC)c(c1c23)c54
In ClCCl
  absorption maximum: 454 nm

## c1ccc2cc3c(cc2c1)-c1cccc2cc4ccccc4c-3c12
In CCCCCCC
  absorption maximum: 469 nm

## Cc1ccc(N(c2ccc(C)cc2)c2ccc(-c3ccc(-c4ccc(N(c5ccc(C)cc5)c5ccc(C)cc5)cc4)c4nsnc34)cc2)cc1
In Cc1ccccc1
  absorption maximum: 474 nm
In ClCCl
  absorption maximum: 485 nm

## O=S(=O)(c1ccc(-c2ccc(-n3c4ccccc4c4ccccc43)cc2)cc1)c1ccc(-c2ccc(-n3c4ccccc4c4ccccc43)cc2)cc1
In Cc1ccccc1
  absorption maximum: 341 nm

## F[B-]1(F)n2c(c(-c3ccccc3)c(-c3cccs3)c2-c2ccccc2)N=C2C(c3ccccc3)=C(c3cccs3)C(c3ccccc3)=[N+]21
In ClCCl
  absorption maximum: 650 nm

## Cc1cc(C2(c3cc(C)c(O)c(Br)c3)OS(=O)(=O)c3ccccc32)cc(Br)c1O
In C1CCOC1
  absorption maximum: 396 nm
In C1COCCO1
  absorption maximum: 396 nm
In CC#N
  absorption maximum: 398 nm
In CC(C)(C)O
  absorption maximum: 411 nm
In CC(C)=O
  absorption maximum: 394 nm
In CC(C)O
  absorption maximum: 413 nm
In CCCCCO
  absorption maximum: 417 nm
In CCCO
  absorption maximum: 415 nm
In CCO
  absorption maximum: 414 nm
In CCOC(C)=O
  absorption maximum: 395 nm
In CCOCC
  absorption maximum: 395 nm

## COc1ccc(N(c2ccc(OC)cc2)c2ccc3c(c2)C2(c4cc(N(c5ccc(OC)cc5)c5ccc(OC)cc5)ccc4C=C3)c3ccccc3-c3ccccc32)cc1
In ClCCl
  absorption maximum: 414 nm

## CC(C)Nc1cc2sc3cc(NC(C)C)c(F)cc3c(=O)c2cc1F
In CCO
  absorption maximum: 377 nm

## COc1ccc(-c2cnc(C#Cc3ccccc3)o2)cc1OC
In ClCCl
  absorption maximum: 330 nm

## F[B-]1(F)n2c(c3ccccc3c2-c2ccccc2)C=C2c3ccccc3C(c3ccccc3)=[N+]21
In C1CCOC1
  absorption maximum: 640 nm
In ClCCl
  absorption maximum: 634 nm

## Cc1cc2ccccc2c2[nH]c3ccccc3c12
In ClCCl
  absorption maximum: 300 nm
